# Laboratory results reported in the OPERA property sets (Mansouri et al. 2018).
# Where a SMILES comes first, the peptide text is derived from it.
row,SMILES,logP
1,CC(CC(=O)c1ccc(-c2ccc(F)cc2F)cc1)C(=O)O (configuration not stated),3.78
2,Fc1ccc(CNc2[nH]cnc3ncnc2-3)cc1,2.34
3,CCOc1cc2ncnc(Nc3cc(F)cc(C(F)(F)F)c3)c2cc1OCC,5.49
4,COC(=O)C(C)NP(=O)(OCC1C=CC(n2cc(C)c(=O)[nH]c2=O)O1)Oc1ccc(Cl)c(Cl)c1 (configuration not stated),2.15
5,CC(=NNC(=O)c1ccncc1)c1cnccn1,1.2
6,O=C1c2ccccc2-c2cc([N+](=O)[O-])ccc21,3.06
7,CC(C)=CC1C(C(=O)OCc2cccc(C(=O)c3ccccc3)c2)C1(C)C (configuration not stated),6.54
8,Cc1c(O)c(=O)ccn1CCCO,-0.88
9,Cc1cc(=O)oc2c1cc(C)c1occ(C)c12,3.23
10,COc1cc2c(Nc3cc(CC(=O)Nc4cccc(F)c4F)[nH]n3)ncnc2cc1OCCCN(CCO)CC(C)C,5.2
11,CCOP(=O)(NC(C)CC)Oc1cc(C)ccc1[N+](=O)[O-] (configuration not stated),2.73
12,CN(C)CCOc1cc2c(c3ccccc13)-c1ccccc1C2=O,4.32
13,CC(C)NC(=S)NS(=O)(=O)c1cnccc1NC1CCCCCCC1,4.2
14,C[C@]12CC[C@@H](O)C[C@@H]1CC[C@@H]1[C@@H]2CC[C@]2(C)[C@@H](O)CC[C@@H]12,4.16
15,CC(C)CCNc1ncnc2c1ncn2C1OC(CO)C(O)C1O (configuration not stated),1.6
16,Cc1c(C)c2cc(C)c3occc3c2oc1=O,3.23
17,CNC=C1c2cccc(O)c2C(=O)c2c(O)cccc21,3.55
18,Cc1nc2c3c(c(C(=O)N(C)C)cn2c1C)CCC(c1ccccc1F)O3 (configuration not stated),3.6
19,COc1ccccc1CNC1CCCNC1c1ccccc1 (configuration not stated),3.1
20,CC(C)CC(NC(=O)C(N)CO)C(=O)O (stereo not drawn) (H-Ser-Leu-OH; configuration not given here),-2.49
21,CC1CC(N)CN1c1cc2c(cc1F)c(=O)c(C(=O)O)cn2-c1ccc(F)cc1F (configuration not stated),0.09
22,COc1ccc(CCNCC(O)COc2ccc(Cc3nc(C(C)=O)c[nH]3)cc2)cc1OC (configuration not stated),2.3
23,CCOC(=O)C(Cc1ccccc1)(Cc1ccccc1)S(=O)(=O)c1ccc([N+](=O)[O-])cc1,3.4
24,NC(N)=NCCCNC(=O)[C@@H]1CCCCN1C(=O)[C@@H](CC1CCCCC1)NCC(=O)O,-0.1
25,C#CCC(O)(c1ccc(C(C)C)cc1)c1cccnc1 (configuration not stated),2.16

row,SMILES,logP
1,CCOC(=O)c1ccc(N=NN(C)C(=O)OCOC(C)=O)cc1,3.44
2,c1nc(N2CCCC2)c2[nH]cnc2n1,1.68
3,Clc1c2ccccc2cc2ccccc12,5.27
4,CCCCC(=O)OCC(=O)C1(O)Cc2c(O)c3c(c(O)c2C(OC2CC(N)C(O)C(C)O2)C1)C(=O)c1c(OC)cccc1C3=O (configuration not stated),2.56
5,COCCCNc1[nH]cnc2ncnc1-2,0.75
6,CC(C)OC(=O)C(=Cc1ccccc1)S(=O)(=O)c1ccc(Cl)cc1,4.18
7,NC(Cc1ccc(O)cc1)C(=O)N1CCCC1C(=O)O (stereo not drawn) (H-Tyr-Pro-OH; configuration not given here),-2.03
8,CNc1ccc2cc3ccccc3nc2c1CO,2.1
9,Cc1cnc2ccc3c(nc(N)n3C)c2n1,1.01
10,CCC1(c2ccncc2)CCC(=O)NC1=O (configuration not stated),0.58
11,CC(C)COC(=O)n1cc(F)c(=O)[nH]c1=O,0.87
12,Cc1nc2c3c(c(C(=O)Nc4ccccc4)cn2c1C)CCC(c1ccccc1)O3 (configuration not stated),5.9
13,c1ccc2c(c1)OCC(Cc1nc3ccccc3[nH]1)O2 (configuration not stated),3.29
14,CCCOc1ccccc1CNc1[nH]cnc2ncnc1-2,3.27
15,CCCc1c2c(cc3c(=O)cc(C(=O)O)oc13)CCCC2,4.2
16,CC(C)CC(NC(=O)C(Cc1ccccc1)NC(=O)CNC(=O)C(NC(=O)C(N)Cc1ccc(O)cc1)C(C)O)C(=O)O (configuration not stated) (H-YTGFL-OH; configuration not given here),-1.18
17,O=C(Nc1ncc([N+](=O)[O-])s1)c1ccc(Cl)c(Cl)c1,4.14
18,Cc1cccc2nc(N)nc(N)c12,1.26
19,Cc1cccc(Nc2ccncc2S(=O)(=O)NC(=NC#N)NC(C)C)c1,1.86
20,CN1CC(O)N(C(=O)NC2CCCCCC2)C1=O (configuration not stated),2.29
21,Cc1oc2ccc3c(C)cc(=O)[nH]c3c2c1C,3.18
22,CC(C)CC(NC(=O)C1CCCN1)C(=O)O (stereo not drawn) (H-Pro-Leu-OH; configuration not given here),-2.41
23,CCCNC(C)C(=O)Nc1c(C)csc1C(=O)OC (configuration not stated),1.89
24,CCCc1ccc(CNc2[nH]cnc3ncnc2-3)cc1,3.72
25,Cc1c(O)c(=O)ccn1CCCOC(=O)c1ccc(O)cc1,0.8

row,SMILES,logP
1,CC(C)CC(NC(=O)C(N)Cc1ccccc1)C(=O)O (stereo not drawn) (H-Phe-Leu-OH; configuration not given here),-1.17
2,Cc1ccc(-n2nnnc2N)cc1Cl,1.89
3,CCN(CC)CCC(=O)Nc1c(C)cc(N)cc1C,0.93
4,C=CCc1c(OC)cc(Cc2cnc(N)nc2N)cc1OCC,2.66
5,COc1cc2ncnc(Nc3ccc(F)cc3)c2cc1OC,2.87
6,COC(=O)c1c(Oc2nc(OC)cc(OC)n2)cccc1C(C)=NOCCCl,3.23
7,CON(C)C(=O)Nc1cccc(CO)c1,0.62
8,Cn1c([N+](=O)[O-])cnc1-c1ccc(F)cc1,1.83
9,Cc1cc2ncccc2c2nc(N)n(C)c12,1.98
10,CCCOc1ccccc1NC(=O)OCCN1CCCCC1,4.23
11,CCOc1cc2ncnc(Nc3cccc(Br)c3)c2cc1OCC,4.4
12,COc1ccccc1CNc1ncnc2nc[nH]c12,2.31
13,CCN(CC)CC(=O)Nc1ccc(N)cc1,1.09
14,C[N+](C)([O-])C(c1ccccc1)c1ccccc1,0.82
15,CC(C)NCC(O)COc1ccc(-c2nc(-c3cccs3)c[nH]2)cc1 (configuration not stated),3.2
16,CC(C)CC(N)C(=O)NC(CO)C(=O)NC(CC(C)C)C(=O)O (stereo not drawn) (H-Leu-Ser-Leu-OH; configuration not given here),-2.35
17,COc1cccc(CCl)c1,2.68
18,Clc1cc(Cl)c2c(oc3cccc(Cl)c32)c1Cl,5.89
19,CCc1cccc(Nc2ccncc2S(=O)(=O)NC(=NC#N)NC(C)C)c1,2.4
20,O=S(=O)(NC(=S)N1CCCCC1)c1cnccc1NC1CCCCCC1,4.15
21,CCc1c(C)nc2c3c(c(C(=O)N(C)C)cn12)CCC(c1ccccc1)O3 (configuration not stated),3.2
22,CC(C)CC(N)C(=O)N1CCCC1C(=O)NC(CC(C)C)C(=O)O (configuration not stated),-1.56
23,COC1(OC)C(N2CCOCC2)=NC(=O)N1c1ccc(Cl)cc1,1.7
24,CC(C)(C)[N+]([O-])=Cc1cccc([N+](=O)[O-])c1,1.3
25,Cc1nc2c3c(c(C(=O)N(C)C)cn2c1C)CCC(c1cccs1)O3 (configuration not stated),2.8

row,SMILES,logP
1,Cc1ccc(OC(=O)CNC(=O)c2ccccc2)c(C)c1,3.4
2,COC(=O)c1c(N2CCOCC2)c(-c2ccc(Cl)cc2)cn1C(C)=O,3.5
3,CC(C)NC(=NC#N)NS(=O)(=O)c1cnccc1Nc1cccc(F)c1,1.59
4,CC(C)C1(C)N=C(c2ncc3ccccc3c2C(=O)O)NC1=O (configuration not stated),1.81
5,CC(C)Oc1cccc2nc(N)nc(N)c12,2.05
6,Clc1cc(Oc2ccccc2)c(Cl)c(Cl)c1Cl,6.31
7,NC(=O)c1cccc(Cn2ccnc2)c1,-0.01
8,COc1ccc(CCNCC(O)COc2ccc(-c3nc(C(N)=O)c[nH]3)cc2)cc1OC (configuration not stated),2.3
9,COC(=O)C=CCn1cc([N+](=O)[O-])nc1C,0.16
10,COCC(O)Cn1c([N+](=O)[O-])nc(Br)c1Br (configuration not stated),1.02
11,S=c1nccc[nH]1,-1.11
12,CCN(CC)C(=O)COC(=O)c1cc(S(N)(=O)=O)c(Cl)cc1NCc1ccco1,2.45
13,CCCCC(=O)OCOCC(=O)C1(O)Cc2c(O)c3c(c(O)c2C(OC2CC(N(C)C)C(O)C(C)O2)C1)C(=O)c1c(OC)cccc1C3=O (configuration not stated),2.82
14,COc1ccc(C2Cc3cc(Sc4ccccc4)ccc3N(CCN(C)C)C(=O)C2OC(C)=O)cc1 (configuration not stated),5.8
15,COC1C(O)CC(=O)OC(C)CC=CC=CC(=O)C(C)CC(CC=O)C1OC1OC(C)C(OC2CC(C)(O)C(OC(=O)CC(C)C)C(C)O2)C(N(C)C)C1O (configuration not stated),1.86
16,CCOC(=O)C(C)(Cc1ccccc1)S(=O)(=O)c1ccc([N+](=O)[O-])cc1 (configuration not stated),3.4
17,CCN(CC)CCNC(=O)c1c(C)cccc1C,2.22
18,CC=C(C)C1(C)CC(O)=C(C(CCC)=NOCC)C(=O)O1 (configuration not stated),3.4
19,ClCC1(CCl)C2CC(Cl)(Cl)C1(CCl)C(Cl)C2Cl (configuration not stated),5.23
20,COc1ccc2cc(C(C)C(=O)OCCCOC(C)=O)ccc2c1 (configuration not stated),3.3
21,FC(F)(F)c1ccccc1CNc1[nH]cnc2ncnc1-2,3.04
22,COc1ccc(CCNCC(O)COc2ccc(-c3nc(C)c(C)[nH]3)cc2)cc1OC (configuration not stated),3.22
23,Cc1nc2ccccc2c(=O)n1CC(=O)NNc1ccccc1,1.34
24,Cc1ccc(N2CC(N3CCOCC3)=CC2=O)cc1,1.4
25,O=C1c2ccccc2-c2nnc(-c3ccc(O)cc3)cc21,2.88

row,SMILES,logP
1,CC(=O)OCOC(=O)N(C)N=Nc1ccc(C#N)cc1,2.08
2,Cc1ncc([N+](=O)[O-])n1CCN=[N+]=[N-],0.76
3,OCCCCCCCCNc1ncnc2c1ncn2C1OC(CO)C(O)C1O (configuration not stated),1.3
4,CCN(CC)CCC(=O)Nc1ccccc1,2.31
5,O=C(Cn1ncc([N+](=O)[O-])n1)NCCO,-0.82
6,Nc1nnnn1-c1ccccc1Cl,0.87
7,CCc1ccc(CNc2[nH]cnc3ncnc2-3)cc1,3.17
8,CC(C)(C)NCC(COc1nsnc1N1CCOCC1)OC(=O)C1CC1 (configuration not stated),3.54
9,Cc1cc(C(=O)O)ccc1[N+](=O)[O-],2.42
10,CC(C)C(Nc1ccc([N+](=O)[O-])cc1[N+](=O)[O-])C(=O)O (configuration not stated),2.88
11,CN(C)CC(c1ccccc1)c1ccccc1,3.58
12,CCN(CC)CCNC(=O)c1c(C)cc(N)cc1C,0.98
13,CCCCCN(C)CC(=O)Nc1c(C)cccc1C,3.2
14,CCCCCC(O)C=CC1C(O)CC(O)C1CC=CCCCC(=O)OCc1ccccc1 (configuration not stated),4.11
15,CCCNCc1ccc(C)cc1,2.96
16,CCCCCCCCCCCCCCNCCO,5.74
17,CC(C)CCCNc1[nH]cnc2ncnc1-2,3.06
18,CCOC(=O)N1COCc2c1ccc1cc3ccc4c(c3nc21)COCN4C(=O)OCC,2.5
19,CN(C1=NC(=O)N(c2ccc(Cl)cc2)C1)C1CCCCC1,2.7
20,CCOC(=O)c1cccc(N(C)C)c1,3.19
21,O=C1C=C(N2CCCC2)C(=O)N1c1ccc(Cl)cc1,3
22,CCOC(=O)CCCn1cc([N+](=O)[O-])nc1C,0.58
